The values that follow come from paper PMC8398714, “Synthesis and Evaluation of Biological Activities of Bis(spiropyrazolone)cyclopropanes: A Potential Application against Leishmaniasis” (Molecules, 2021).

What is called inhibition is how much of the control response was suppressed. The IC50 is the midpoint of a concentration-inhibition curve. A low value points to inhibition by little substance. The CC50 is the concentration that lowers cell viability or growth by half.

“And” between values parts separate entries of the source, which are not always exact repeats. Equal values may be shown once. Read-outs that look alike come from different tables or passages of the source.

Series [1] deals with CHO-K1. Briefly: MTS cell viability assay on immortalized CHO-K1 cells. The settings on record: 48 h, Dox 1 µM, mean ± SEM, NA = no activity, read-out: Percentage (%) of inhibition, CHO-K1. Type of series: cell-based, hamster. (Tetrazolium assays rely on reduction of a dye to a coloured formazan, in cell work by metabolically active cells.)
In series [2] the test system is RKO. Briefly: MTS cell viability assay on RKO cells. Type of series: cell-based. The settings on record: Homo sapiens, 48 h; for inhibition at 100 µM: Dox 1 µM, mean ± SEM, NA = no activity, read-out: Percentage (%) of inhibition, RKO; for IC50: 15-150 µM, mean ± SEM of triplicates.
In series [3] the test system is HeLa. Briefly: MTS cell viability assay on HeLa cells. The series is classed as cell-based. The conditions noted are these: Homo sapiens, 48 h, Dox 1 µM, mean ± SEM, NA = no activity, read-out: Percentage (%) of inhibition, HeLa.
For series [4], the system named is CHO-K1 cells. Type of series: cell-based, hamster. On the procedure: Cells were mixed with 150 μL low-melting-point agarose 1% (LMP, Promega, Madison, WI, USA) and added to microscope slides previously prepared with normal-melting-point agarose 1% (NMP, Invitrogen, Carlsbad, CA, USA). A third LMP agarose layer (150 µL) was added. The slides were immersed in a cooled lysing solution (pH 10) with 10% DMSO, 1% Triton X-100 (Sigma Aldrich, Saint Louis, MO, USA), 2.5 M NaCl (Loba Chemie, Mumbai, India), 100 mM EDTA and 10 mM Tris (Invitrogen, Carlsbad, CA, USA) for 12 h at 4 °C. All steps after lysis were performed under darkness or yellow light to prevent additional DNA damage. The slides were immersed for 20 min in an electrophoresis buffer solution (pH 13) with NaOH 300 mM (Fisher Scientific, Waltham, MA, USA) and EDTA 1 mM (Invitrogen, Carlsbad, CA, USA) to allow for DNA unwinding. Electrophoresis was later performed at 25 V and 300 mA for 20 min. Slides were then sprayed with a neutralization buffer (pH 7.5) 0.4 M Tris (Sigma Aldrich, Saint Louis, MO, USA). Ethidium bromide (60 µL) was added to each slide, and a cover glass was placed on the gel. The DNA migration was analyzed using a ZEISS-Axioskop 2 plus microscope with fluorescence (40×) by scoring 100 cells per slide in duplicate. After that, the tail moment parameter was analyzed by a Comet Assay IV software (Perceptive Instruments Ltd., Bury St Edmunds, Suffolk, UK).

Series [5] in a line: Cytotoxicity, MTT assay on RAW 264.7 macrophages. The settings on record: mouse. The series is classed as cell-based. On the procedure: Raw 264.7 (ATCC® TIB-71™) was maintained in Dulbecco’s Modified Eagle Medium (DMEM) (Gibco, Invitrogen, Gibco, Carlsbad, CA, USA) supplemented with 10% fetal bovine serum (FBS) (Eurobio, Les Ulis, France) and 100 IU/mL penicillin + 100 μg/mL streptomycin (Gibco), at 37 °C in a 5% CO2 atmosphere. The medium was renewed once a week. The viability was determined using MTT (Thiazolyl Blue Tetrazolium Bromide) dye assay as described before for leishmanicidal activity assessment, with some variations. Here, 5 × 10^4 cells/well in a final volume of 100 µL were deposited into a 96-well plate, in triplicate. Saponin (2.4 mg/mL) and untreated cells were used as positive control and negative control, respectively. A stock solution was prepared in DMSO and immediately diluted in media to obtain different serial concentrations (100–0.01 µM). After 48 h exposure to the compounds, 10 µL/well of MTT (5 mg/mL MTT in PBS) were added, and the plate was incubated at 37 °C for 2 h in the dark. Cells were pelleted by centrifugation at 4400 rpm for 10 min and the media was removed. Then, 100 µL/well of DMSO were added and the absorbance at 570 nm was recorded; a reference wavelength of 630 nm was used for background subtraction.

Series [6] deals with MCF-7. Briefly: MTS cell viability assay on MCF-7 cells. The series is classed as cell-based. The settings on record: Homo sapiens, MCF7, 48 h, Dox 1 µM, mean ± SEM, NA = no activity, read-out: Percentage (%) of inhibition, MCF-7.
Series [7] is described as follows: DPPH radical scavenging assay. The conditions noted are these: 30 min, 515 nm. On the procedure: The stock solution of the compounds was prepared by dissolving 4 in dimethyl sulfoxide (DMSO) to a concentration of 4 mg/mL. The solution was diluted with methanol until a concentration of 400 µg/mL was obtained and then used immediately.
The experimental procedure was adapted from the literature. Briefly, 100 µL of a 0.2 mM methanol solution of DPPH (2, 2-diphenyl-1-picrylhydrazyl) radical were added to 100 µL of methanolic solutions of 4 prepared as serial two-fold dilutions from the stock solution in 96-well microfilter plates. Standards and edaravone were also prepared in the same concentrations. The mixture was incubated in dark at room temperature for 30 min and the absorbance was read at 515 nm on a Cytation 5 (BioTek) spectrophotometer.
The % DPPH scavenging activity was then calculated by using the following formula:(1) % DPPH scavenging = 100 × [(Asample+DPPH−Asample blank)/(ADPPH−Asolvent)]
The antioxidant activity of the compound was expressed as IC50, which is defined as the concentration that could scavenge 50% of the DPPH free radical. The IC50 values were calculated in GraphPad Prism 7.02 (GraphPad Software, Corp.) The results are given as a mean ± standard deviation (SD) of experiments done in triplicate.
A general note: Loss of DPPH colour is used to gauge radical scavenging.

Series [8] in a line: MTS cell viability assay on A-549 cells. Type of series: cell-based. The conditions noted are these: Homo sapiens; 48 h, 15-150 µM, mean ± SEM of triplicates.
Where [9] appears, read: RAW cells, 48 h, MTT, read-out: Cytotoxicity CC50.
Setting [10] is: Statistical Analyses S1, unrounded mean of CC50 in RAW cells, unit inferred, read-out: CC50 original values, x.1 (Mean).

Turning to `CC1=NN(c2ccccc2)C(=O)[C@@]12C(c1cccc([N+](=O)[O-])c1)[C@@]21C(=O)N(c2ccccc2)N=C1C` (relative stereo) [4d, (5R*,6R*)-11-(3-Nitrophenyl)-4,10-dimethyl-2,8-diphenyl-2,3,8,9-tetraazadispiro[4.0.4.1]undeca-3,9-diene-1,7-dione], the inhibition at 100 µM in series [1] amounted to 4.4 ± 0.72%; in series [2], 68.9 ± 1.72%; in series [3], 48.6 ± 4.91%; in series [6], 39.4 ± 2.29%. Also, the IC50 in series [2] is 94 ± 4.09 µM; in series [7], greater than 300 µM; in series [8], 94.8 ± 4.54 µM. Also, the “Genotoxic effect in comet assay versus DMSO control” value in series [4] was “most significant”. Further, the CC50 at 48 h amounted to 3.9 ± 1.1 µM in series [5] (setting [9]) and 3.92 µM in series [5] (setting [10]).
As to `CC1=NN(c2ccccc2)C(=O)[C@@]12C(c1ccc([N+](=O)[O-])cc1)[C@@]21C(=O)N(c2ccccc2)N=C1C` (relative stereo) [4k, (5R*,6R*)-11-(4-Nitrophenyl)-4,10-dimethyl-2,8-diphenyl-2,3,8,9-tetraazadispiro[4.0.4.1]undeca-3,9-diene-1,7-dione], the inhibition at 100 µM was 67.6 ± 0.77% in series [2], 47.2 ± 1.36% in series [3] and 43 ± 3.46% in series [6]. For the same molecule, the half-inhibitory concentration (IC50) is 84 ± 9.46 µM in series [2]; 234 µM and < 300 µM in series [7]; 114 ± 6.37 µM in series [8]. The “Genotoxic effect in comet assay versus DMSO control” value in series [4] is listed as “most significant”. The 50% cytotoxic concentration (CC50) at 48 h in series [5] (setting [9]) is 3.3 ± 1 µM; in series [5] (setting [10]), 3.31 µM.
Take `COC(=O)c1ccc(C2[C@@]3(C(=O)N(c4ccccc4)N=C3C)[C@]23C(=O)N(c2ccccc2)N=C3C)cc1` (relative stereo) [4q, (5R*,6R*)-Methyl-4[4,10-dimethyl-2,8-diphenyl-2,3,8,9-tetraazadispiro[4.0.4.1]undeca-3,9-diene-1,7-dione-11-yl]benzoate]: the inhibition at 100 µM came out at 2.29 ± 2.6% in series [1], 62.9 ± 1.53% in series [2], 31.7 ± 1.52% in series [3] and 32.5 ± 2.33% in series [6]. The values for the IC50 in series [2], in series [7] and in series [8] were 102 ± 7.8 µM, greater than 300 µM and 85.1 ± 10.5 µM, respectively. For the same molecule, the “Genotoxic effect in comet assay versus DMSO control” value in series [4] was “did not show differences with respect to the control of DMSO”. Besides, the figures for the CC50 at 48 h in series [5] (setting [9]) and in series [5] (setting [10]) were 4 ± 0.8 µM and 4.01 µM, respectively.
